# Assay results as given in publication PMC12470129, “New Derivatives of 2-(Cyclohexylamino)thiazol-4(5H)-one as Strong Inhibitors of 11β-Hydroxysteroid Dehydrogenase Type 1: Synthesis, Antiproliferative and Redox-Modulating Activity” (International Journal of Molecular Sciences, 2025).
# Entries after “also recorded” stand apart in the source; their conditions may differ.
# Experiments:
# 11β-HSD1 = target: T1, 11β-HSD1 (Homo sapiens, UniProt P28845); assay: 11β-HSD1 inhibition assay (cortisone to cortisol, human liver microsomes, cortisol ELISA); assay type: biochemical; conditions: for inhibition at 10 µM: at a concentration of 10 µM; for inhibition at 10 µM / IC50: human liver microsomes; for selectivity 11β-HSD1 versus 11β-HSD2: compared on % inhibition at 10 µM, versus carbenoxolone; for IC50: unit printed in text (b17-b19)
# T1 construct: human liver microsomes were used as a source of the 11β‐HSD1 enzyme; tissue XenoTech Lot No.1410013; host or cells: pooled human liver microsomes, mixed gender
# Description: 11β-Hydroxysteroid dehydrogenase type 1 and type 2 inhibition assays were performed as previously described. For more details, see the Supplementary Materials.
# Detailed protocols of enzyme inhibition assays
# 1. Inhibition of 11β‐HSD Assays […]
# tetrasodium salt, phosphate buffer powder, (Sigma‐Aldrich, Poznań, Poland), Pooled human liver microsomes, mixed gender, 1 mL, 20 mg/mL Lot No.1410013 ‐ XenoTech, Cortisol Elisa Ref DkO001 Lot […]
# No. L211008799 – (Cloud‐Clone Corp., Wuhan, China), PBS Lot No. H161008 (Pan Biotech, Aidenbach, […]
# liver microsomes were used as a source of the 11β‐HSD1 enzyme. Standard 96‐well microplates were filled with a reagent mixture: cortisone/NADPH (20 μ l, to obtain a final concentration of 200 nM / 2 μ M), […]
# water. The resulting solution (final volume 100 μ l) was incubated for 2.5 h at 37°C. To stop the reaction, 10 μl of a 100 μM solution of 18β‐glycyrrhetinic acid in PBS was added. Cortisol levels resulting from the reaction were measured using a commercially available ELISA kit.
# (§1) Solvents and reagents: 18‐beta‐glycyrrhetinic acid – (Acros Organic, Geel, Belgium), cortisone, NAD cofactor, phosphate buffer powder (Sigma‐Aldrich, Poznań, Poland), Human Kidney Microsomes, […]
# (§2) ‐ (DiaMetra, Spello, Italy), Enzyme‐Linked Immunosorbent Assay (ELISA) Kit for 11‐Beta‐ Hydroxysteroid Dehydrogenase Type 2 Lot No. L191113457 ‐ (Cloud‐Clone Corp., Wuhan, China), PBS Lot No. H161008 (Pan Biotech, Aidenbach, Germany). […]
# (§3) kidney microsomes were used as a source of the 11β‐HSD2 enzyme. Standard 96‐well microplates were filled with a reagent mixture: cortisol/NAD+ (20 μL, to obtain a final concentration of 200 nM / 2 μM), […]
# (§4) The resulting solution (final volume of 100 μL) was incubated for 2.5 h at 37°C. […]
# (§5) levels were measured using a commercially available ELISA kit.
# (§6) 1.3. Determination of IC50 […]
# (§7) conditions described in the sections above. Analogous assays without added inhibitors were performed as controls. The IC₅₀ value, defined as the concentration of inhibitor causing a 50% reduction in cortisol or cortisone, was read directly from the graph.
# 11β-HSD2 = target: T2, 11β-HSD2 (Homo sapiens, UniProt P80365); assay: 11β-HSD2 inhibition assay (cortisol to cortisone, human kidney microsomes, cortisol ELISA); assay type: biochemical; conditions: at a concentration of 10 µM
# T2 construct: human kidney microsomes were used as a source of the 11β‐HSD2 enzyme; tissue XenoTech Lot No. 1710160; host or cells: human kidney microsomes, mixed gender
# T2 sequence (P80365 1-405): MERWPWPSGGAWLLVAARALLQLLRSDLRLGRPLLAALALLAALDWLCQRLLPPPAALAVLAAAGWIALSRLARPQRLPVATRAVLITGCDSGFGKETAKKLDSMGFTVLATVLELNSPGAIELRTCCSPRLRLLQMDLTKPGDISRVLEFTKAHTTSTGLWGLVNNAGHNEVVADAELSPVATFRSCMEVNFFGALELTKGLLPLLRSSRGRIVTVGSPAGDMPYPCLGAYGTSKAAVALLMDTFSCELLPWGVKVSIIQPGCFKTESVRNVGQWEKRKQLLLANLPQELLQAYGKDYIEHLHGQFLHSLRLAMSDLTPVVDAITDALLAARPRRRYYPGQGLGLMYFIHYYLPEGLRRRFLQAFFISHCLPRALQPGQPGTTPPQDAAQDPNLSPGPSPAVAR
# Description: 11β-Hydroxysteroid dehydrogenase type 1 and type 2 inhibition assays were performed as previously described. For more details, see the Supplementary Materials. […]
# as §1, §2, §3, §4, §5, §6, §7
# Caco-2 cells [1] = assay: MTS assay, Caco-2; assay type: cell-based, human; conditions: for cell metabolic activity down-regulated to (MTS): Caco-2, 72 h, strongest effects
# Description: (§8) Human fibroblast (BJ; Cat# CRL-2522), human pancreatic cancer (PANC-1; Cat# CRL-1469), human breast cancer (MDA-MB-231; Cat# HTB-26); human brain glioma cells (U-118 MG; Cat# HTB-15), human melanoma (SK-MEL-30; Cat# ACC 151) and human colon carcinoma (Caco-2; Cat# HTB-37) were purchased from ATCC (Manassas, VA, USA) or DSMZ (Braunschweig, Germany). The cell lines were routinely maintained in the medium recommended by the manufacturer—MEM, DMEM, or RPMI (Corning, New York, NY, USA) with L-glutamine, 4.5 g/L glucose, and sodium pyruvate and supplemented with 10% FBS for BJ, PANC-1, MDA-MB-231, U-118 MG, and SK-MEL-30 or 20% FBS for Caco-2. All cell lines were cultured in a humidified CO2 incubator at 37 °C. For assays, cells were seeded at a constant density of 5 × 10^3 cells/0.32 cm^2 for Caco-2, PANC-1, MDA-MB-231, U-118 MG, and SK-MEL-30 or 2 × 10^3 cells/0.32 cm^2 for BJ.
# (§9) MTS assay was performed as described elsewhere. Cell lines were seeded in a 96-well plate 24 h prior to treatment. Compounds 3a–3i were tested in a 10–500 µM concentration range and treated for 72 h. Next, the MTS solution was added for 3h and incubated at 37 °C. Absorbance was measured at 590 nm and 620 nm wavelengths using a Synergy H1 microplate reader (BioTek Instruments, San Diego, CA, USA).
# U-118 MG cells = assay: MTS assay, U-118 MG; assay type: cell-based, human; conditions: 72 h
# Description: as §8, §9
# Caco-2 cells [2] = assay: Intracellular redox homeostasis (ROS, RNS, GSH), Caco-2; assay type: cell-based, human; conditions: Caco-2, 500 µM, 72 h
# Description: as §8
# (§10) Based on the MTS assay, a toxic concentration of 500 µM of each compound was selected for redox analysis for all cell lines. Cell lines were seeded at the standard density in 96-well black plates. […] The signal measurement was taken with a Synergy H1 microplate reader (BioTek Instruments, CA, USA).
# MDA-MB-231 cells = assay: MTS assay, MDA-MB-231; assay type: cell-based, human; conditions: for cell metabolic activity down-regulated to (MTS): MDA-MB-231, 72 h, strongest effects
# Description: as §8, §9
# SK-MEL-30 cells [3] = assay: Intracellular redox homeostasis (ROS, RNS, GSH), SK-MEL-30; assay type: cell-based, human; conditions: SK-MEL-30, 500 µM, 72 h
# Description: as §8, §10
# SK-MEL-30 cells [4] = assay: MTS assay, SK-MEL-30; assay type: cell-based, human; conditions: for cell metabolic activity down-regulated to (MTS): SK-MEL-30, 72 h, strongest effects
# Description: as §8, §9
# PANC-1 cells = assay: MTS assay, PANC-1; assay type: cell-based, human; conditions: PANC-1, 72 h
# Description: as §8, §9
# BJ cells = assay: Intracellular redox homeostasis (ROS, RNS, GSH), BJ; assay type: cell-based, human; conditions: 500 µM, 72 h
# Description: as §8, §10
# T1 sequence (P28845 whole entry): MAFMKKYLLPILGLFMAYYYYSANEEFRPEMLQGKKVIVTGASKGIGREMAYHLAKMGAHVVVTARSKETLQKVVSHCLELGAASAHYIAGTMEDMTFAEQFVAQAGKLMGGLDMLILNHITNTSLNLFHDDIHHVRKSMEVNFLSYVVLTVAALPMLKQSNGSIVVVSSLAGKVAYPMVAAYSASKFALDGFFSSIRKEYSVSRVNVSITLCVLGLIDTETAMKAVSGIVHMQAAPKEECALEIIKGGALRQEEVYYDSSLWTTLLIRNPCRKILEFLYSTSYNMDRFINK
Compound,inhibition at 10 µM (11β-HSD1) [%],selectivity 11β-HSD1 versus 11β-HSD2 (11β-HSD1),IC50 (11β-HSD1) [nM],inhibition at 10 µM (11β-HSD2) [%],"concentration at which a decrease in cell viability is observed (Caco-2 cells [1]; Caco-2, MTS, 72 h)","highest increase in proliferation (metabolic activity, MTS) (U-118 MG cells)",ROS level (Caco-2 cells [2]),cell metabolic activity down-regulated to (MTS) (Caco-2 cells [1]),cell metabolic activity down-regulated to (MTS) (MDA-MB-231 cells),ROS level (SK-MEL-30 cells [3]),cell metabolic activity down-regulated to (MTS) (SK-MEL-30 cells [4]),"highest increase in proliferation (metabolic activity, MTS) (PANC-1 cells)","change of cell viability / metabolic activity (Caco-2 cells [1]; Caco-2, MTS, 72 h, 10–500 µM)","concentration at which a decrease in cell viability / metabolic activity is observed (MDA-MB-231 cells; MDA-MB-231, MTS, 72 h) [µM]","change of cell viability / metabolic activity (MDA-MB-231 cells; MDA-MB-231, MTS, 72 h, 10–500 µM)","change of cell viability / metabolic activity (SK-MEL-30 cells [4]; SK-MEL-30, MTS, 72 h, 10–500 µM)",ROS level (BJ cells)
"CC1SC(NC2CCCCC2)=NC1=O (stereo not drawn) [Compound 3a, 2-(Cyclohexylamino)-5-methylthiazol-4(5H)-one]",27.5 ± 2.12,greater inhibitory activity towards 11β-HSD2 than 11β-HSD1,> 10000,42 ± 2.5,above 200 µM,115–134%,increase in ROS production,,,,,,,,,,
"CCC1SC(NC2CCCCC2)=NC1=O (stereo not drawn) [Compound 3b, 2-(Cyclohexylamino)-5-ethylthiazol-4(5H)-one]",68.5 ± 4.28,,570 ± 60,38.3 ± 9.96,above 200 µM,,increase in ROS production,30–54%,30–54%,increase in ROS production,,,,,,,
"CCCC1SC(NC2CCCCC2)=NC1=O (stereo not drawn) [Compound 3c, 2-(Cyclohexylamino)-5-propylthiazol-4(5H)-one]",85.7 ± 4.43,,400 ± 5,47.1 ± 0.82,,,,,30–54%,,30–54%,,,,,,
"CC(C)C1SC(NC2CCCCC2)=NC1=O (stereo not drawn) [Compound 3d, 2-(Cyclohexylamino)-5-isopropylthiazol-4(5H)-one]",90.4 ± 2.74,greater selectivity than the standard compound,80 ± 15,47 ± 1.67,above 200 µM,,,,,,30–54%,,,,,,
"CC1(C)SC(NC2CCCCC2)=NC1=O [Compound 3e, 2-(Cyclohexylamino)-5,5-dimethylthiazol-4(5H)-one]",82.6 ± 1.79,,300 ± 50,38.6 ± 5.56,above 200 µM,,,30–54%,,,,115–134%,,,,,
"O=C1N=C(NC2CCCCC2)SC1c1ccccc1 (stereo not drawn) [Compound 3f, 2-(Cyclohexylamino)-5-phenylthiazol-4(5H)-one]",83.8 ± 4.53,,170 ± 35,40 ± 8.34,,,,,,,30–54%,115–134%,,,,,
"O=C1N=C(NC2CCCCC2)SC1c1ccc(Br)cc1 (stereo not drawn) [Compound 3g, 5-(4-Bromophenyl)-2-(cyclohexylamino)thiazol-4(5H)-one]",90.2 ± 1.59,greater selectivity than the standard compound,70 ± 8,47.2 ± 1.17,1 µM,115–134%,,30–54%,30–54%,,30–54%,,vigorous inhibitory activity,75,vigorous inhibitory activity,vigorous inhibitory activity,
"O=C1N=C(NC2CCCCC2)SC12CCCCC2 [Compound 3h, 2-(Cyclohexylamino)-1-thia-3-azaspiro [4.5]dec-2-en-4-one]",94 ± 2.35,greater selectivity than the standard compound; also recorded: better activity and selectivity than carbenoxolone,40 ± 4,45.6 ± 5.28,,,,30–54%,30–54%,,,115–134%,,,,,increase in ROS
"O=C1N=C(NC2CCCCC2)SC12CCC2 [Compound 3i, 6-(Cyclohexylamino)-5-thia-7-azaspiro [3.4]oct-6-en-8-one]",87.3 ± 0.99,,90 ± 16,51 ± 0.73,above 200 µM,115–134%,,30–54%,30–54%,,,,,,,,increase in ROS
